According to US12396961B2, “Compounds and compositions for intracellular delivery of agents” (ModernaTX, Inc., priority 2015, dated 2025):
“Also recorded” adds a separate entry of the source. Where two headings read alike, the source gives them in different places.

Assays:
[1] = system: luciferase (Luc) mRNA expression; assay: Expression of Luc, bioluminescence (total flux) after intravenous administration to mice; assay type: in vivo
Experimental: In order to monitor how effectively various nanoparticle compositions deliver therapeutic and/or prophylactic agents to targeted cells, different nanoparticle compositions including a particular therapeutic and/or prophylactic agent (for example, a modified or naturally occurring RNA such as an mRNA) are prepared and administered to rodent populations. Mice are intravenously, intramuscularly, intraarterially, or intratumorally administered a single dose including a nanoparticle composition with a formulation such as those provided in Table 1. In some instances, mice may be made to inhale doses. Dose sizes may range from 0.001 mg/kg to 10 mg/kg, where 10 mg/kg describes a dose including 10 mg of a therapeutic and/or prophylactic agent in a nanoparticle composition for each 1 kg of body mass of the mouse. A control composition including PBS may also be employed.
Upon administration of nanoparticle compositions to mice, dose delivery profiles, dose responses, and toxicity of particular formulations and doses thereof can be measured by enzyme-linked immunosorbent assays (ELISA), bioluminescent imaging, or other methods. For nanoparticle compositions including mRNA, time courses of protein expression can also be evaluated. Samples collected from the rodents for evaluation may include blood, sera, and tissue (for example, muscle tissue from the site of an intramuscular injection and internal tissue); sample collection may involve sacrifice of the animals.
The efficacy of the nanoparticle compositions presented in Tables 1, la, 17-1, 19-1, 20-1 and 21-1 was evaluated with a bioluminescence study. Formulations were administered intravenously to mice (n=6) at a dosage of 0.5 mg/kg (mpk) and bioluminescence measured at 3, 6, and 24 hour time points. The standard MC3 formulation and a PBS control were evaluated for comparison.

[2] = Particle size and polydispersity index (Zetasizer Nano ZS); assay type: physicochemical; details: for PDI: Table 1, DOPE 40:20:38.5:1.5, Luc mRNA
Summary of the method: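 Particle size and polydispersity index were measured by dynamic light scattering on a Zetasizer Nano ZS in 1×PBS. Zeta potential was measured in 15 mM PBS.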

[3] = system: hEPO mRNA expression; assay: Expression of hEPO after intravenous administration to rats; assay type: in vivo; details: for hEPO (pg/mL) 3 hours / hEPO (pg/mL) 6 hours / hEPO (pg/mL) 24 hours: Table 6, rats i.v. 0.2 or 0.5 mg/kg
Experimental: PBS (phosphate buffered saline) is used as control.
Formulations were prepared according to Table 5 and included mRNA encoding hEPO.
[…] After the 48 hour time point, livers and spleens were harvested and frozen.

[4] = system: rats; assay: Tolerability / toxicity in rats dosed i.v. with hEPO mRNA LNP; assay type: in vivo; details: 2 mg/kg dose
[5] = system: luciferase (Luc) mRNA expression; assay: Luc expression (AUC) in CD-1 mice relative to MC3; assay type: in vivo; details: for Lipid/MC3 Luc CD-1 (mice): Luc expression relative to MC3, CD-1 mice
Summary of the method: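 CD-1 mice dosed at 0.5 mpk with nanoparticle compositions carrying luciferase mRNA; total light flux acquired by whole-body luminescent imaging 6 h after administration. Expression referenced to MC3-containing composition.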

[6] = system: luciferase (Luc) mRNA expression; assay: Expression of Luc in different organs (liver, lung, spleen, femur) 6 hours after intravenous administration; assay type: in vivo; details: mice i.v. 0.5 mpk
Experimental: The efficacy of the nanoparticle compositions presented in Tables 1, la, 17-1, 19-1, 20-1 and 21-1 was further evaluated by measuring the expression of modified luciferase in the liver, lung, spleen, and femur upon administration of a given composition. Formulations were administered intravenously to mice (n=3) at a dosage of 0.5 mpk and bioluminescence measured after 6 hours. The standard MC3 formulation and a PBS control were also tested.

[7] = system: LDLr mRNA / Luc expression; assay: Expression (AUC) in LDLr−/− mice relative to KL22; assay type: in vivo; details: Table 7b
[8] = Lipid levels (clearance) in liver and spleen 48 hours after administration; assay type: in vivo, rats; details: for concentration at 48 h: Sprague-Dawley, rat, intravenous
Experimental: Formulations were administered intravenously to rats (n=3 or 6) at a dosage of 0.2 mg/kg or 0.5 mg/kg (mpk) and hEPO levels measured at 3, 6, and 24 hour time points. After the 48 hour time point, livers and spleens were harvested and frozen.
The amount of lipid in the liver and spleen 48 hours after administration of a nanoparticle composition was also measured. […] In contrast, approximately 60% of doses including MC3 or Compound 22 remained in the liver after 48 hours. Less than 3% of the dose remained in the spleen for each composition tested.

[9] = system: GFP mRNA expression in liver cells; assay: Mouse liver immunohistochemistry (IHC) of GFP after GFP mRNA LNP; assay type: in vivo, CD-1 mouse; LDLR knockout mouse; details: i.v. 0.5 mpk; MC3: CD-1 mouse, 6h; Compound 4: LDLR knockout mouse, 8h
Experimental: FIG. 11 is a pair of images comparing the results of a mouse liver immunohistochemistry (IHC) using mRNA expressing green fluorescent protein (GFP) after administration of nanoparticle compositions containing Compound 4 and MC3.
FIG. 16 is a graph showing GFP levels in the livers of LDLR knockout mice at 30 min to 24 h after intravenous administration of an eGFP RNA in a lipid composition containing Compound 4. The liver GFP levels were determined via IHC. The square markers represent the number of GFP positive cells following administration of a dose of 0.1 mpk of the composition. The circular markers represent the number of GFP positive cells following administration of a dose of 0.5 mpk of the composition.

[10] = system: hEPO mRNA expression; assay: Expression of hEPO in mice (CD-1); assay type: in vivo, CD-1 mice; details: hEPO expression relative to MC3, CD-1 mice
From the text: FIG. 12 is a set of graphs illustrating hEPO expression levels in CD-1 mice dosed with compounds of the disclosure, compared to MC3. PBS is used as control. […] In graphs A-C numbers 1-14 refer to compositions containing the following: 1: Compound 73, 2: Compound 80, 3: Compound 70; 4: Compound 81; 5: Compound 69; 6: Compound 82; 7: Compound 83; 8: Compound 62; 9: Compound 84; 10: Compound 85; 11: Compound 86; 12: Compound 87; 13: MC3; 14: PBS.
FIG. 13 is a graph showing hEPO levels (pg/mL) in CD-1 mice up to −25 h after administration of a nanoparticle composition containing compounds of the disclosure, compared to a composition containing MC3. Numbers 1-13 refer to compositions containing the following: 1: Compound 73, 2: Compound 80, 3: Compound 70; 4: Compound 81; 5: Compound 69; 6: Compound 82; 7: Compound 83; 8: Compound 62; 9: Compound 84; 10: Compound 85; 11: Compound 86; 12: Compound 87; 13: MC3. […]

CCCCCCCCCCCCN(CCCCCCCCCCCC)CCN(CCCCCCCCCCCC)CCN1CCN(CCN(CCCCCCCCC)CCCCCCCCC)CC1 [Compound 23, N^1-(2-(4-(2-(Dinonylamino)ethyl)piperazin-1-yl)ethyl)-N^1,N^2,N^2 tridodecylethane-1,2-diamine]
Luc expression in mice compared with MC3 (Table 7a) ([1]; mice, in words): several fold higher | PDI [2]: 0.058 | hEPO (pg/mL) 3 hours ([3]; DOPE formulation of Table 5): 249213 pg/mL | hEPO (pg/mL) 6 hours ([3]; DOPE formulation of Table 5): 275440 pg/mL | hEPO (pg/mL) 24 hours ([3]; DOPE formulation of Table 5): 120104 pg/mL | hEPO (pg/mL) 3 hours ([3]; DSPC formulation of Table 5): 86627 pg/mL | hEPO (pg/mL) 6 hours ([3]; DSPC formulation of Table 5): 71360 pg/mL | hEPO (pg/mL) 24 hours ([3]; DSPC formulation of Table 5): 29008 pg/mL | Tolerability / toxicity in rats (FIG. 8) [4]: toxic

CCCCCCCCCCCCCCN(CCCCCCCCCCCCCC)CCN1CCN(CCN(CCCCCCCCC)CCN(CCCCCCCCC)CCCCCCCCC)CC1 [Compound 20, N^1-(2-(4-(2-(Ditetradecylamino)ethyl)piperazin-1-yl)ethyl)-N^1,N^2,N^2-trinonylethane-1,2-diamine]
Lipid/MC3 Luc CD-1 (mice) [5]: 5.0 | PDI [2]: 0.150 | Total flux in organs, comparison in words over the organs of the table named [6]: highest total flux

CCCCCC=CCC=CCCCCCCCCC(CCCCCCCCC=CCC=CCCCCC)OC(=O)CCCN(C)C (centres unmarked) [MC3, heptatriaconta-6,9,28,31-tetraen-19-yl 4-(dimethylamino)butanoate, reference compound]
Lipid/KL22 AUC LDLr−/− mice 0.5 mpk, LDLr [7]: 0.15 | Lipid/MC3 Luc CD-1 (mice) [5]: 1 | Lipid/MC3 AUC CD-1 mice 0.5 mpk ([5]; Table 7b, Luc expression, CD-1 mice, 0.5 mpk): 1 | Total flux (Luc expression), comparison in words over the time points of the table named ([1]; mice i.v. 0.5 mg/kg, 3, 6, 24 hours, 0.5 mg/kg): highest total flux; also recorded: highest luciferase expression | Size (nm) ([2]; Table 20-1): 84.0 nm | hEPO expression at each time point, comparison in words (Table 6) ([3]; rats i.v., 3, 6, 24 hours): highest hEPO expression | % dose remaining Rat liver (48 h) ([8]; rat liver, 48 h): 43.11% | GFP protein expression in liver cell types (IHC, FIG. 11) [9]: observed in both hepatocytes and Kupffer cells | Total flux in organs, comparison in words over the organs of the table named ([6]; 0.5 mg/kg): highest total flux; also recorded: highest expression in each organ

CCCCCCCCCCCCN(CCCCCCCCCCCC)CCN(CCCCCCCCCCCC)CCN1CCN(CCN(CCCCCCCCCCCC)CCCCCCCCCCCC)CC1 [KL22, N1-[2-(didodecylamino)ethyl]-N1,N4,N4-tridodecyl-1,4-piperazinediethanamine, reference compound]
Lipid/KL22 AUC LDLr−/− mice 0.5 mpk, LDLr [7]: 1 | hEPO expression in rats (FIG. 8) ([3]; rats, 2 mpk, i.v. (Graph A), in words): do not express hEPO in rats | Tolerability / toxicity in rats (FIG. 8) [4]: toxic

CCCCC/C=C\C/C=C\CCCCCCCCC1(CCCCCCCC/C=C\C/C=C\CCCCC)CCC(OC(=O)CCCN(C)C)C1 (centres unmarked) [Compound 21-4, 3,3-Di((9Z,12Z)-octadeca-9,12-dien-1-yl)cyclopentyl 4-(dimethylamino)butanoate]
Total flux in organs, comparison in words over the organs of the table named [6]: lowest expression in each organ

CCCCCCCCCCCCN(CCCCCCCCCCCC)CCN(CCCCCCCCCCCC)CCN1CCN(CCN(CCCCCCCCC)CCCCCCCCC)CC1 [23 (DOPE)]
Lipid/MC3 hEPO CD-1 (mice) [10]: 2.4 | Lipid/MC3 hEPO S.D. (rats) ([3]; hEPO expression relative to MC3, S.D. rats, intravenous): 0.21 | concentration at 48 h ([8]; liver, 48 hours after administration, read-out: Lipid in liver): 32900 ng/g | concentration at 48 h ([8]; spleen, 48 hours after administration, read-out: Lipid in spleen): 26100 ng/g | % remaining dose in liver ([8]; liver, 48 hours after administration): 51.4% | % remaining dose in spleen ([8]; spleen, 48 hours after administration): 2.72%

CCCCC/C=C\C/C=C\CCCCCCCCC1(CCCCCCCC/C=C\C/C=C\CCCCC)CC(OC(=O)CCCN(C)C)C1 [Compound 21-2, 3,3-Di((9Z,12Z)-octadeca-9,12-dien-1-yl)cyclobutyl 4-(dimethylamino)butanoate]
Total flux in organs, comparison in words over the organs of the table named [6]: lowest expression in each organ
